Literature values, collected in PubChem BioAssay AID1259409 (Chemical Carcinogenesis Research Information System (CCRIS), 2018).

Tested on: rodent chemically induced tumor inhibition, incidence and multiplicity
Assay: CCRIS tumor inhibitor studies

CCCCCCCC/C=C\CCCCCCCC(=O)O
tumour outcome (control, treated, inhibition, significance) (Carcinogen: 1,2-DIMETHYLHYDRAZINE, 540-73-8, Dose [Inhibitor]: 0, 1 MG/D FOR 25 WK BEGINNING 3 WK PRIOR TO CARCINOGEN (STUDY DURATION: 25 WK), Route [Inhibitor]: ORAL, Species: RAT, Strain/Sex: CD-1/MALE, Target Tissue: Type of Lesion: COLON: TUMOR, Dose [Carcinogen]: 15 MG/KG 1/WK FOR 16 WK): 17/22 (77%), 19/22 (86%), -12%, not significant | tumour outcome (control, treated, inhibition, significance) (Carcinogen: BENZO[A]PYRENE, 50-32-8, Dose [Inhibitor]: 25 MG IN 0.1 ML ACETONE 3/WK ADMINISTERED SIMULTANEOUSLY WITH CARCINOGEN FOR DURATION OF STUDY (STUDY DURATION: 440 D), Route [Inhibitor]: DERMAL, Species: MOUSE, Strain/Sex: ICR/FEMALE, Target Tissue: Type of Lesion: SKIN: PAPILLOMA, Dose [Carcinogen]: 5 UG IN 0.1 ML ACETONE 3/WK FOR DURATION OF STUDY, Promoter: NONE USED): 16/50 (32%), 0/50 (0%), 100%, not calculated | tumour outcome (control, treated, inhibition, significance) (Carcinogen: BENZO[A]PYRENE, 50-32-8, Dose [Inhibitor]: 25 MG IN 0.1 ML ACETONE 3/WK ADMINISTERED SIMULTANEOUSLY WITH CARCINOGEN FOR DURATION OF STUDY (STUDY DURATION: 440 D), Route [Inhibitor]: DERMAL, Species: MOUSE, Strain/Sex: ICR/FEMALE, Target Tissue: Type of Lesion: SKIN: SQUAMOUS CARCINOMA, Dose [Carcinogen]: 5 UG IN 0.1 ML ACETONE 3/WK FOR DURATION OF STUDY, Promoter: NONE USED): 12/50 (24%), 0/50 (0%), 100%, not calculated

N
tumour outcome (control, treated, inhibition, significance) (Carcinogen: N-BUTYL-N-(4-HYDROXYBUTYL)NITROSAMINE, 3817-11-6, Dose [Inhibitor]: 0, 1% IN DRINKING WATER FOR 31 WK BEGINNING POST CARCINOGEN DOSE (STUDY DURATION: 36 WK), Route [Inhibitor]: ORAL, Species: RAT, Strain/Sex: F344/MALE, Target Tissue: Type of Lesion: URINARY BLADDER: CARCINOMA, Dose [Carcinogen]: 0.05% IN DRINKING WATER FOR 4 WK, Promoter: BUTYLATED HYDROXYANISOLE, 25013-16-5): 5/15 (33%), 3/15 (20%), 39%, not significant | tumour outcome (control, treated, inhibition, significance) (Carcinogen: N-BUTYL-N-(4-HYDROXYBUTYL)NITROSAMINE, 3817-11-6, Dose [Inhibitor]: 0, 1% IN DRINKING WATER FOR 31 WK BEGINNING POST CARCINOGEN DOSE (STUDY DURATION: 36 WK), Route [Inhibitor]: ORAL, Species: RAT, Strain/Sex: F344/MALE, Target Tissue: Type of Lesion: URINARY BLADDER: CARCINOMA, Dose [Carcinogen]: 0.05% IN DRINKING WATER FOR 4 WK, Promoter: SODIUM BICARBONATE, 144-55-8): 8/15 (53%), 4/15 (27%), 49%, not significant | tumour outcome (control, treated, inhibition, significance) (Carcinogen: N-BUTYL-N-(4-HYDROXYBUTYL)NITROSAMINE, 3817-11-6, Dose [Inhibitor]: 0, 1% IN DRINKING WATER FOR 31 WK BEGINNING POST CARCINOGEN DOSE (STUDY DURATION: 36 WK), Route [Inhibitor]: ORAL, Species: RAT, Strain/Sex: F344/MALE, Target Tissue: Type of Lesion: URINARY BLADDER: PAPILLOMA, Dose [Carcinogen]: 0.05% IN DRINKING WATER FOR 4 WK, Promoter: BUTYLATED HYDROXYANISOLE, 25013-16-5): 8/15 (53%), 8/15 (53%), 0%, not significant | tumour outcome (control, treated, inhibition, significance) (Carcinogen: N-BUTYL-N-(4-HYDROXYBUTYL)NITROSAMINE, 3817-11-6, Dose [Inhibitor]: 0, 1% IN DRINKING WATER FOR 31 WK BEGINNING POST CARCINOGEN DOSE (STUDY DURATION: 36 WK), Route [Inhibitor]: ORAL, Species: RAT, Strain/Sex: F344/MALE, Target Tissue: Type of Lesion: URINARY BLADDER: PAPILLOMA, Dose [Carcinogen]: 0.05% IN DRINKING WATER FOR 4 WK, Promoter: SODIUM BICARBONATE, 144-55-8): 9/15 (60%), 8/15 (53%), 12%, not significant

COc1ccc2cc1Oc1ccc(cc1)C[C@H]1c3c(cc4c(c3Oc3cc5c(cc3OC)CCN(C)[C@@H]5C2)OCO4)CCN1C
tumour outcome (control, treated, inhibition, significance) (Carcinogen: 7,12-DIMETHYLBENZ[A]ANTHRACENE, 57-97-6, Dose [Inhibitor]: 0, 0.005% IN DIET BEGINNING 1 D POST CARCINOGEN TREATMENT AND CONTINUING FOR DURATION OF STUDY (STUDY DURATION: 18 WK), Route [Inhibitor]: ORAL, Species: MOUSE, Strain/Sex: ICR/FEMALE, Target Tissue: Type of Lesion: SKIN: PAPILLOMA, Dose [Carcinogen]: 50 UG IN 100 µL ACETONE ONCE, Promoter: 12-O-TETRADECANOYLPHORBOL-13-ACETATE, 16561-29-8): 100%, 95%, 5%, not significant | tumour outcome (control, treated, inhibition, significance) (Carcinogen: 7,12-DIMETHYLBENZ[A]ANTHRACENE, 57-97-6, Dose [Inhibitor]: 0, 0.005% IN DIET BEGINNING 1 D POST CARCINOGEN TREATMENT AND CONTINUING FOR DURATION OF STUDY (STUDY DURATION: 25 WK), Route [Inhibitor]: ORAL, Species: MOUSE, Strain/Sex: ICR/FEMALE, Target Tissue: Type of Lesion: SKIN: PAPILLOMA, Dose [Carcinogen]: 50 UG IN 100 µL ACETONE ONCE, Promoter: 12-O-TETRADECANOYLPHORBOL-13-ACETATE, 16561-29-8, MEZEREIN, 34807-41-5, Promoter: 12-O-TETRADECANOYLPHORBOL-13-ACETATE, 16561-29-8, MEZEREIN, 34807-41-5): 75%, 45%, 40%, not calculated | tumour outcome (control, treated, inhibition, significance) (Carcinogen: 7,12-DIMETHYLBENZ[A]ANTHRACENE, 57-97-6, Dose [Inhibitor]: 0, 2 UMOL 2/WK 30 MIN PRIOR TO EACH PROMOTER DOSE BEGINNING 1 WK POST CARCINOGEN DOSE (STUDY DURATION: 18 WK), Route [Inhibitor]: DERMAL, Species: MOUSE, Strain/Sex: ICR/FEMALE, Target Tissue: Type of Lesion: SKIN: PAPILLOMA, Dose [Carcinogen]: 50 UG ONCE, Promoter: 12-O-TETRADECANOYLPHORBOL-13-ACETATE, 16561-29-8): 100%, 27%, 73%, not calculated | tumour outcome (control, treated, inhibition, significance) (Carcinogen: 7,12-DIMETHYLBENZ[A]ANTHRACENE, 57-97-6, Dose [Inhibitor]: 0, 20 UMOL/MOUSE 2/WK FOR 18 WK APPLIED 5 MIN PRIOR TO EACH PROMOTER DOSE (STUDY DURATION: 19 WK), Route [Inhibitor]: DERMAL, Species: MOUSE, Strain/Sex: CD-1/FEMALE, Target Tissue: Type of Lesion: SKIN: PAPILLOMA, Dose [Carcinogen]: 100 UG IN 200 µL ACETONE ONCE, Promoter: 12-O-TETRADECANOYLPHORBOL-13-ACETATE, 16561-29-8): 100%, 30%, 70%, p<0.01
